Measurements taken from ChEMBL document CHEMBL1159292, “New antifungal bithienylacetylenes from Blumea obliqua” (1995).
Values after ≈ are worked out from the molar mass of the structure shown. Active and inactive are the calls of the source. The rule behind the calls is not given here.

What was measured:
Epidermophyton floccosum = experiment: Antifungal activity against Epidermophyton floccosum after 7 days by tube dilution method; format: functional; settings: 168 h
Pleurotus ostreatus = experiment: Antifungal activity against Pleurotus ostreatus after 7 days by tube dilution method; format: functional; settings: 168 h
Shigella boydii = experiment: Antibacterial activity against Shigella boydii by agar well diffusion method; format: functional, organism-based
[1] = tested on: Corynebacterium diphtheriae; experiment: Antibacterial activity against Corynebacterium diphtheriae by agar well diffusion method; format: functional, organism-based
Staphylococcus aureus = experiment: Antibacterial activity against Staphylococcus aureus by agar well diffusion method; format: functional, organism-based
Escherichia coli = experiment: Antibacterial activity against Escherichia coli by agar well diffusion method; format: functional, organism-based
Enterococcus faecalis = experiment: Antibacterial activity against Streptococcus faecalis by agar well diffusion method; format: functional, organism-based
[2] = tested on: Salmonella enterica subsp. enterica serovar Typhi str. CT18; experiment: Antibacterial activity against Salmonella typhi by agar well diffusion method; format: functional, organism-based

`COC1=CC(=O)C[C@@H](C)[C@]12Oc1c(Cl)c(OC)cc(OC)c1C2=O` [GRISEOFULVIN] was tested, and the MIC (Epidermophyton floccosum) was 250 µg/mL (≈ 709 µM) and the MIC (Pleurotus ostreatus) was 250 µg/mL (≈ 709 µM).

For `Cc1ccc(-c2ccc(C#CCCOC(=O)CC(C)C)s2)s1`, the MIC (Epidermophyton floccosum) was 200 µg/mL (≈ 602 µM), the MIC (Pleurotus ostreatus) was 200 µg/mL (≈ 602 µM) and the Activity (Shigella boydii) was “Active”. The Activity [1] was “Active”, the Activity (Staphylococcus aureus) was “Active” and the Activity (Escherichia coli) was “Active”. For the same molecule, the Activity (Enterococcus faecalis) was “Active” and the Activity [2] was “Active”.

With `C=CC#Cc1ccc(-c2ccc(COC(=O)CC(C)C)s2)s1` the MIC (Epidermophyton floccosum) was 200 µg/mL (≈ 605 µM) and the MIC (Pleurotus ostreatus) was 200 µg/mL (≈ 605 µM).
